Results on 11 molecules are retold here after ChEMBL document CHEMBL1145459, “Novel vanilloid receptor-1 antagonists: 2. Structure-activity relationships of 4-oxopyrimidines leading to the selection of a clinical candidate” (J Med Chem, 2007).

Data set [1] can be described thus: Half life in rat. It is filed as ADME, organism-based. The settings on record: in vivo.
In data set [2] the target is T1, Transient receptor potential cation channel subfamily V member 1 (Rattus norvegicus, UniProt O35433). Briefly: Antagonist activity at rat TRPV1 expressed in CHO cells assessed as inhibition of capsaicin-induced calcium influx. The data set is classed as functional, cell-based.
The target of data set [3] is T1, Transient receptor potential cation channel subfamily V member 1. Put plainly: Antagonist activity at rat TRPV1 expressed in CHO cells assessed as inhibition of acid-induced calcium influx. The data set is classed as functional, cell-based.
For data set [4], the system named is Rattus norvegicus. Briefly: Blockade of capsaicin-induced hypothermia in rat at 3 mg/kg, po by telemetry model. It is filed as functional.
Data set [5] is described as follows: Metabolic stability in rat liver microsomes assessed as clearance. It is filed as ADME, Microsome. (In general: Liver microsomes are a subcellular fraction often used to study metabolism.)
Data set [6] in a line: In vivo clearance in Sprague-Dawley rat at 1 mg/kg, iv. It is filed as ADME, organism-based. On the set-up: dose 1 mg/kg, route intravenous.
Data set [7] is described as follows: Metabolic stability in human liver microsomes assessed as clearance. It is filed as ADME, Microsome.
Data set [8] deals with T2, Transient receptor potential cation channel subfamily V member 1 (Homo sapiens, UniProt Q8NER1). Briefly: Antagonist activity at human TRPV1 expressed in CHO cells assessed as inhibition of heat-induced calcium influx. The data set is classed as functional, cell-based.
For data set [9], the system named is Rattus norvegicus. Put plainly: Inhibition of CFA-induced paw thermal hyperalgesia in Sprague-Dawley rat at 10 mg/kg, po relative to control. It is filed as functional. Also on record: scale not given: the % may be the effect or the level left.
Data set [10] deals with Rattus norvegicus. Put plainly: Inhibition of CFA-induced paw thermal hyperalgesia in po dosed Sprague-Dawley rat. The data set is classed as functional. The settings on record: read-out: MED.
A short description of data set [11]: Bioavailability in fasted Sprague-Dawley rat at 3 mg/kg, po. It is filed as ADME, organism-based. To be noted: in vivo.
Data set [12] can be described thus: Aqueous solubility in hydrochloric acid by high-throughput automated format. The data set is classed as physicochemical.
The nature of data set [13]: Half life in monkey at 1 mg/kg, iv. Also on record: dose 1 mg/kg, route intravenous. It is filed as ADME, organism-based, Macaca mulatta. The settings on record: rhesus monkey, in vivo.
Data set [14] in a line: Clearance in Sprague-Dawley rat at 1 mg/kg, iv. It is filed as ADME, organism-based. Also on record: dose 1 mg/kg, route intravenous. The settings on record: in vivo.
Data set [15] is described as follows: AUC (0-infinity) in Sprague-Dawley rat at 1 mg/kg, iv. The data set is classed as ADME, organism-based. Also on record: time infinity, dose 1 mg/kg, route intravenous. To be noted: plasma.
Data set [16] is described as follows: Half life in dog at 1 mg/kg, iv. It is filed as ADME, organism-based, Canis lupus familiaris. Also on record: dose 1 mg/kg, route intravenous. The settings on record: in vivo.
Data set [17] can be described thus: AUC (0 to infinity) in rat at 1 mg/kg, iv. It is filed as ADME, organism-based. On the set-up: time infinity, dose 1 mg/kg, route intravenous. To be noted: plasma.
Data set [18] in a line: Bioavailability in monkey at 1 mg/kg, po. The data set is classed as ADME, organism-based, Macaca mulatta. The settings on record: rhesus monkey, in vivo.
Data set [19] in a line: Clearance in monkey at 1 mg/kg, iv. On the set-up: dose 1 mg/kg, route intravenous. The data set is classed as ADME, organism-based, Macaca mulatta. To be noted: rhesus monkey, in vivo.
Data set [20] can be described thus: AUC (0-infinity) in monkey at 1 mg/kg, iv. The data set is classed as ADME, organism-based, Macaca mulatta. Also on record: time infinity, dose 1 mg/kg, route intravenous. The settings on record: rhesus monkey, plasma.
Data set [21] is described as follows: Clearance in dog at 1 mg/kg, iv. It is filed as ADME, organism-based, Canis lupus familiaris. Also on record: dose 1 mg/kg, route intravenous. To be noted: in vivo.
Data set [22] relates to Rattus norvegicus. Briefly: Efficacy in capsaicin-induced flinching in po dosed Sprague-Dawley rat. It is filed as functional.
Data set [23] is described as follows: Volume of distribution at steady state at 1 mg/kg, iv. It is filed as ADME, organism-based. Also on record: dose 1 mg/kg, route intravenous. The settings on record: rat, in vivo, read-out: Vss.
A short description of data set [24]: Solubility in PBS by high-throughput automated format. It is filed as physicochemical.
Data set [25] in a line: Clearance in rat at 1 mg/kg, iv. The data set is classed as ADME, organism-based. Also on record: dose 1 mg/kg, route intravenous. To be noted: in vivo.
Data set [26] in a line: Volume of distribution at steady state in Sprague-Dawley rat at 1 mg/kg, iv. The data set is classed as ADME, organism-based. Also on record: dose 1 mg/kg, route intravenous. The settings on record: in vivo, read-out: Vss.
Data set [27] in a line: AUC (0-infinity) in dog at 1 mg/kg, iv. To be noted: plasma. Also on record: dose 1 mg/kg, route intravenous, time infinity. It is filed as ADME, organism-based, Canis lupus familiaris.
The target of data set [28] is T2, Transient receptor potential cation channel subfamily V member 1. Put plainly: Antagonist activity at human TRPV1 expressed in CHO cells assessed as inhibition of capsaicin-induced calcium influx. It is filed as functional, cell-based.
The nature of data set [29]: Half life in Sprague-Dawley rat at 1 mg/kg, iv. Also on record: dose 1 mg/kg, route intravenous. It is filed as ADME, organism-based. To be noted: in vivo.
Data set [30] in a line: Half life in rat at 1 mg/kg, iv. It is filed as ADME, organism-based. Also on record: dose 1 mg/kg, route intravenous. To be noted: in vivo.
A short description of data set [31]: Solubility in simulated intestinal fluid by high-throughput automated format. It is filed as physicochemical.
For data set [32], the target named is T2, Transient receptor potential cation channel subfamily V member 1. Briefly: Antagonist activity at human TRPV1 expressed in CHO cells assessed as inhibition of acid-induced calcium influx. It is filed as functional, cell-based.
Data set [33] can be described thus: Volume of distribution at steady state in monkey at 1 mg/kg, iv. To be noted: rhesus monkey, in vivo, read-out: Vss. Also on record: dose 1 mg/kg, route intravenous. It is filed as ADME, organism-based, Macaca mulatta.
Data set [34] can be described thus: Bioavailability in dog at 1 mg/kg, po. It is filed as ADME, organism-based, Canis lupus familiaris. To be noted: in vivo.
Data set [35] is described as follows: Volume of distribution at steady state in dog at 1 mg/kg, iv. It is filed as ADME, organism-based, Canis lupus familiaris. Also on record: dose 1 mg/kg, route intravenous. The settings on record: in vivo, read-out: Vss.
The test system of data set [36] is Rattus norvegicus. Briefly: Inhibition of capsaicin-induced flinching in Sprague-Dawley rat at 3 mg/kg, po upto 24 hrs. The data set is classed as functional, organism-based. On the set-up: dose 3 mg/kg.
Data set [37] in a line: Bioavailability in rat at 1 mg/kg, po. The settings on record: in vivo. It is filed as ADME, organism-based.
The nature of data set [38]: Bioavailability in fasted Sprague-Dawley rat at 5 mg/kg, po. It is filed as ADME, organism-based. The settings on record: in vivo.

What is called half-life is how long it takes for the measured level to halve. The term IC50 denotes the concentration that gives 50% inhibition. Broadly, the microsomal CLint is a measure of how fast metabolising enzymes remove a compound, apart from limits set by blood flow. Broadly, the clearance is the rate of elimination divided by the concentration. Broadly, the bioavailability is the share of a dose that reaches the circulation, judged against a reference dose that is usually intravenous. The solubility is the concentration that dissolves in the medium under given conditions. By AUC(0-inf) is commonly meant total exposure, with the tail of the curve extrapolated. A word on the ED50: it is the dose that gives a 50% effect, or the effect in half of the subjects.

Values after ≈ are worked out from the molar mass of the structure shown. Active and inactive are the calls of the source. The calls are words filed in the database; no cut-off is given here.

T1 sequence (O35433 whole entry): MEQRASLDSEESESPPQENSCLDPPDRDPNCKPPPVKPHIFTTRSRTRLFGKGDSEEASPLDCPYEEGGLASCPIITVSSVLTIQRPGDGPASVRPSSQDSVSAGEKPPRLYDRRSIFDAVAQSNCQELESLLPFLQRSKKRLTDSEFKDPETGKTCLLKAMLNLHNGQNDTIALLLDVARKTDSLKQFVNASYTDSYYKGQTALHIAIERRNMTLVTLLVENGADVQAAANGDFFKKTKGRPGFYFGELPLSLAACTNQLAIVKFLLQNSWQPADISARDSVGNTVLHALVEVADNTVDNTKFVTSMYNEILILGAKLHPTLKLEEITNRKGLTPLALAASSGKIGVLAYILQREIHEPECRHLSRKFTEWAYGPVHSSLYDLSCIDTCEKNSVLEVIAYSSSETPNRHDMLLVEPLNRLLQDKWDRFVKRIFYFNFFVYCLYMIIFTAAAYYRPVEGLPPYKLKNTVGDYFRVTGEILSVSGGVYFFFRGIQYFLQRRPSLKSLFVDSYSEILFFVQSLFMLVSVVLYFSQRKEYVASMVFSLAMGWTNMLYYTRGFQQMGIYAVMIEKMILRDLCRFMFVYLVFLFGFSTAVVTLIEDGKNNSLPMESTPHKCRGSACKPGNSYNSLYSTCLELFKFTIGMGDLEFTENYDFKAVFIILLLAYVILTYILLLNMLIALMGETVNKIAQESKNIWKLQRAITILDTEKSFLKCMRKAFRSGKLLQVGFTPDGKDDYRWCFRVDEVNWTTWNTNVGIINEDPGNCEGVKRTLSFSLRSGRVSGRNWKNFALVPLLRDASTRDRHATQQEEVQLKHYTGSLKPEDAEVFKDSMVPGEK
T2 sequence (Q8NER1 whole entry): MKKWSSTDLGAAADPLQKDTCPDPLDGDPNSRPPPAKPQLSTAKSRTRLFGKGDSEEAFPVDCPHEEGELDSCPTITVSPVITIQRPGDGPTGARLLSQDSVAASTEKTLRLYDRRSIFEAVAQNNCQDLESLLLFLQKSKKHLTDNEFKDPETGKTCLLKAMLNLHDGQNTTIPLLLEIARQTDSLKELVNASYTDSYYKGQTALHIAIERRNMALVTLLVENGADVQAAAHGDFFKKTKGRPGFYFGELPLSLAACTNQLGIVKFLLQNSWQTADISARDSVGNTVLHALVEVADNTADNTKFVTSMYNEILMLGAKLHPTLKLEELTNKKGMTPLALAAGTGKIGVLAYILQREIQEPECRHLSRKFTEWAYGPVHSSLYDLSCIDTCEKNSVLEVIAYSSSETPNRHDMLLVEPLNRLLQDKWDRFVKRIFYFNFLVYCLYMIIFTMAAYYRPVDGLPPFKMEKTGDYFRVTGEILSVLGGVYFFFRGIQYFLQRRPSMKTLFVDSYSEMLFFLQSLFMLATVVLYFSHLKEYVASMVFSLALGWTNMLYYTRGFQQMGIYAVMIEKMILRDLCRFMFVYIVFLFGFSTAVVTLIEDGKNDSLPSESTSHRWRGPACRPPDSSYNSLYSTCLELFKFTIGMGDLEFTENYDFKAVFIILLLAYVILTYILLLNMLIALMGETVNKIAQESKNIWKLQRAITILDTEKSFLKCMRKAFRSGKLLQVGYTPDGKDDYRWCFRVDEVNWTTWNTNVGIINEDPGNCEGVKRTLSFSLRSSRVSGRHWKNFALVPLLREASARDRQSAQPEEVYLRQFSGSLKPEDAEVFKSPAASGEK

In data set [1], `FC(F)(F)c1ccc(-c2cc(Oc3ccc4cccnc4c3)ncn2)cc1` gave a half-life of 2.8 h.
As to `FC(F)(F)c1ccc(-c2cc(Oc3ccc4ccncc4c3)ncn2)cc1`, the IC50 in data set [2] is 460 nM; in data set [3], above 4000 nM.
For `FC(F)(F)c1ccc(-c2cc(Oc3ccc4ccccc4n3)ncn2)cc1`, the IC50 in [3] is above 4000 nM.
For `Nc1cnc2cccc(Oc3cc(-c4ccc(C(F)(F)F)cc4)ncn3)c2n1`, the Activity with Rattus norvegicus [4] was 100%. The intrinsic metabolic clearance (microsomal CLint) in data set [5] is 15 µL/min/mg; in [7] it was below 14 µL/min/mg. For the same molecule, the IC50 in data set [2] was 63 nM; in data set [3], 16 nM. In data set [6], the clearance was 71.7 mL/min/kg.
Take `FC(F)(F)c1ccc(-c2cc(Oc3ccnc4ccccc34)ncn2)cc1`: the IC50 in [2] and in data set [3] was above 4000 nM in each case.
Consider `CCC(=O)Nc1nc2c(Oc3cc(-c4ccc(C(F)(F)F)cc4)ncn3)cccc2s1`, for which, in [3], the IC50 was 1500 nM.
Regarding `Nc1nc2c(Oc3cc(-c4ccc(C(F)(F)F)cc4)ncn3)cccc2s1`, the values for the microsomal CLint in [5] and in data set [7] were 47 µL/min/mg and below 5 µL/min/mg, respectively. Besides, the IC50 in [2] was 1.2 nM; in data set [3], above 4000 nM. The clearance in [6] was 3.67 mL/min/kg.
`CC(=O)Nc1nc2c(Oc3cc(-c4ccc(C(F)(F)F)cc4)ncn3)cccc2s1` [AMG-517]: the IC50 was 1.3 nM in data set [8], 0.76 nM in data set [28] and 0.62 nM in data set [32]. The molecule further displayed an Activity in the data set with Rattus norvegicus [9] of 35%. The minimal effective dose with Rattus norvegicus [10] came to 0.83 mg/kg. Further, the bioavailability amounted to 32% in data set [11], 52% in data set [18], 23% in [34] and 51% in data set [37]. The solubility in data set [12] is below 1 µg/mL; in data set [24], below 1 µg/mL; in data set [31] it was 6.6 µg/mL (≈ 15.3 µM). Moreover, the half-life in data set [13] was 62 h; in data set [16] it was 41 h; in data set [29], 6.3 h; in data set [30], 31 h. Besides, the clearance was 3.17 mL/min/kg in data set [14]; 0.5 mL/min/kg in data set [19]; 2.33 mL/min/kg in [21]; 2 mL/min/kg in data set [25]; 4.17 mL/min/kg in data set [6]. The AUC(0-inf) in [15] was 5400 ng·h/mL; in data set [17] it was 8800 ng·h/mL; in [20] it was 37000 ng·h/mL; in data set [27], 7400 ng·h/mL. Also, the microsomal CLint in [5] was 50 µL/min/mg; in [7] it was below 5 µL/min/mg. This molecule also had an ED50 in the data set with Rattus norvegicus [22] of 0.35 mg/kg. Further, the Vd in data set [23] turned out to be 4 L/kg; in data set [26] it was 1.56 L/kg; in data set [33] it was 2.3 L/kg; in data set [35], 7 L/kg. For the same molecule, the outcome in the data set on Rattus norvegicus [36] was Active.
As to `CC(=O)N(C)c1nc2c(Oc3cc(-c4ccc(C(F)(F)F)cc4)ncn3)cccc2s1`, the IC50 in [2] was above 4000 nM; in [3], 860 nM.
`Nc1nc2c(Oc3cc(-c4ccc(C(F)(F)F)cc4)ncn3)cccc2[nH]c1=O`: the IC50 came out at 0.4 nM in data set [8], 0.8 nM in data set [28] and 0.9 nM in data set [32]. Further, the solubility is below 1 µg/mL in [12], below 1 µg/mL in data set [24] and 9.2 µg/mL (≈ 23 µM) in [31]. For the same molecule, the clearance in data set [14] is 3.28 mL/min/kg; in [6], 4.33 mL/min/kg. The molecule further came in with an AUC(0-inf) in data set [15] of 5140 ng·h/mL. Also, the microsomal CLint in data set [5] and in data set [7] was below 14 µL/min/mg throughout. In addition, the Vd in data set [26] was 1.69 L/kg. In data set [29], this molecule showed a half-life of 6 h. Further, the bioavailability in data set [38] was determined as 7%.
`O=c1ccc2cccc(Oc3cc(-c4ccc(C(F)(F)F)cc4)ncn3)c2[nH]1`: the IC50 in data set [2] and in data set [3] was above 4000 nM throughout.
